Laboratory results as given in patent publication US20230072421A1, “TARGETED RADIOPHARMACEUTICALS FOR THE DIAGNOSIS AND TREATMENT OF PROSTATE CANCER” (Bayer AS, priority 2019, published 2023).

Columns and labels:
[1] = test system: C4-2 cells; experiment: Cell proliferation assay (CellTiter-Glo, 5-day exposure), C4-2; format: cell-based; conditions: C4-2, 1000 cells/well, Th-227 labelled at 375 kBq/nmol, mean of 1 to 6 experiments
In short: (§1)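 Thorium-227-labelled PSMA small-molecule ligands were tested on prostate cancer lines seeded at 4000 cells/well (VCaP) or 1000 cells/well (22Rv1, C4-2, LNCaP) and incubated overnight at 37 °C, 5% CO2. Viability was read by CellTiter-Glo luminescence at treatment start (sister plates) and after 5-day compound exposure.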

[2] = test system: LNCaP human prostate cancer cells; experiment: LNCaP xenograft efficacy study (T/C tumor area); format: in vivo, SCID mice; conditions: Example IV; day 36 after start of therapy; once 1 MBq/kg
In short: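 SCID mice with testosterone pellet bearing s.c. flank LNCaP xenografts (5×10^6 cells in Matrigel) were treated i.v. with a defined radioactive dose once tumors reached 35-50 mm^2 (n=10/group). Tumor area (caliper, longest diameter × perpendicular) measured 2-3× weekly; T/C ratio calculated from tumor areas when vehicle group closed.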

[3] = test system: VCaP cells; experiment: Cell proliferation assay (CellTiter-Glo, 5-day exposure), VCaP; format: cell-based; conditions: 4000 cells/well, Th-227 labelled at 375 kBq/nmol, mean of 1 to 6 experiments
In short: as §1

[4] = test system: 22Rv1 cells; experiment: Cell proliferation assay (CellTiter-Glo, 5-day exposure), 22Rv1; format: cell-based; conditions: 22Rv1, 1000 cells/well, Th-227 labelled at 375 kBq/nmol, mean of 1 to 6 experiments
In short: as §1

[5] = Biodistribution study in LNCaP tumor-bearing mice (Th227 counted in organs); format: in vivo, SCID mice; conditions: 1500 kBq/kg
Description: SCID mice were randomly assigned to experimental groups, ten animals per group (efficacy) or n=3-5 per time point of biodistribution study. At the initiation of the study, a testosterone pellet was subcutaneously transplanted, the animals were shaved, tattooed and each cage was labeled with the cage number, study number and number of animals per cage.
LNCaP human prostate cancer cells were cultured as described according to the supplier's protocols. Cells were harvested for transplantation in a subconfluent (70%) state. Animals were injected with 5×10^6 LNCaP cells suspended in 100% Matrigel subcutaneously into the flank of the mice.
Biodistribution study: When tumors reached a predetermined size in mice of ˜50 mm^2 animals were randomized into groups (n=3 animals/time point) and the radioactive compound was once applied intravenously. The i.v. application volume was 100 μl/mice.
At the predetermined time point, n=3 animals were sacrificed, the organs removed, weight and measured in a Germanium detector to count the Th227 in the sample.

In the case of `Cc1cc(C(=O)NCCN(CCCN(CCNC(=O)c2cc(C)n(CC(=O)O)c(=O)c2[O-])CCNC(=O)c2cc(C)n(CC(=O)NCC3CCC(C(=O)NC(Cc4cnc5ccccc5c4)C(=O)NCCCCC(NC(=O)NC(CCC(=O)O)C(=O)O)C(=O)O)CC3)c(=O)c2[O-])CCNC(=O)c2cc(C)n(CC(=O)NCC3CCC(C(=O)NC(Cc4cnc5ccccc5c4)C(=O)NCCCCC(NC(=O)NC(CCC(=O)O)C(=O)O)C(=O)O)CC3)c(=O)c2[O-])c([O-])c(=O)n1CC(=O)O.[227Th+4]` (stereo not drawn) [Example 22-C dimer-227Th], the “Proliferation assay on cancer cell lines by TTCs Default Pivot #3 IC50 [kBq/mL] C4-2 1000cells 375kBq/nmol (mean)” value [1] is reported as 2.56 kBq/mL, the T/Carea [2] is reported as 0.67 and the “Proliferation assay on cancer cell lines by TTCs Default Pivot #3 IC50 [kBq/mL] VCap 4000cells 375kBq/nmol (mean)” value [3] is reported as 3.65 kBq/mL. The “Proliferation assay on cancer cell lines by TTCs Default Pivot #3 IC50 [kBq/mL] 22Rv1 1000cells 375kBq/nmol (mean)” value [4] was 0.89 kBq/mL, the Th-227 in Blood ([5]; 0.25 h) was 3.35% ID Th-227/g organ and the Th-227 in Liver ([5]; 0.25 h) was 1.79% ID Th-227/g organ. For the same compound, the Th-227 in Spleen ([5]; 0.25 h) was 13.87% ID Th-227/g organ, the Th-227 in Tumor ([5]; 0.25 h) was 4.57% ID Th-227/g organ and the Th-227 in bone ([5]; 0.25 h) was 2.50% ID Th-227/g organ. The Th-227 in brain ([5]; 0.25 h) was 0.13% ID Th-227/g organ, the Th-227 in kidney ([5]; 0.25 h) was 61.44% ID Th-227/g organ and the “Th-227 in large intestine” value ([5]; 0.25 h) was 0.87% ID Th-227/g organ. The Th-227 in lung ([5]; 0.25 h) was 3.56% ID Th-227/g organ, the Th-227 in muscle ([5]; 0.25 h) was 1.27% ID Th-227/g organ and the Th-227 in prostate ([5]; 0.25 h) was 5.47% ID Th-227/g organ. The “Th-227 in salivary glands” value ([5]; 0.25 h) was 2.63% ID Th-227/g organ, the “Th-227 in small intestine” value ([5]; 0.25 h) was 1.64% ID Th-227/g organ and the Th-227 in Blood ([5]; 1 hr) was 0.53% ID Th-227/g organ. It also gave a Th-227 in Liver ([5]; 1 hr) of 0.41% ID Th-227/g organ, a Th-227 in Spleen ([5]; 1 hr) of 8.93% ID Th-227/g organ and a Th-227 in Tumor ([5]; 1 hr) of 4.49% ID Th-227/g organ. For the same compound, the Th-227 in bone ([5]; 1 hr) was 1.12% ID Th-227/g organ, the Th-227 in brain ([5]; 1 hr) was 0.01% ID Th-227/g organ and the Th-227 in kidney ([5]; 1 hr) was 96.67% ID Th-227/g organ. The “Th-227 in large intestine” value ([5]; 1 hr) was 0.23% ID Th-227/g organ, the Th-227 in lung ([5]; 1 hr) was 1.30% ID Th-227/g organ and the Th-227 in muscle ([5]; 1 hr) was 0.28% ID Th-227/g organ. For the same compound, the Th-227 in prostate ([5]; 1 hr) was 1.66% ID Th-227/g organ, the “Th-227 in salivary glands” value ([5]; 1 hr) was 0.69% ID Th-227/g organ and the “Th-227 in small intestine” value ([5]; 1 hr) was 0.38% ID Th-227/g organ. For the same compound, the Th-227 in Blood ([5]; 4 hr) was 0.10% ID Th-227/g organ, the Th-227 in Liver ([5]; 4 hr) was 0.60% ID Th-227/g organ and the Th-227 in Spleen ([5]; 4 hr) was 1.68% ID Th-227/g organ. It also gave a Th-227 in Tumor ([5]; 4 hr) of 2.18% ID Th-227/g organ, a Th-227 in bone ([5]; 4 hr) of 0.74% ID Th-227/g organ and a Th-227 in brain ([5]; 4 hr) of 0.00% ID Th-227/g organ. The Th-227 in kidney ([5]; 4 hr) was 45.26% ID Th-227/g organ, the “Th-227 in large intestine” value ([5]; 4 hr) was 0.29% ID Th-227/g organ and the Th-227 in lung ([5]; 4 hr) was 0.38% ID Th-227/g organ. The Th-227 in muscle ([5]; 4 hr) was 0.05% ID Th-227/g organ, the Th-227 in prostate ([5]; 4 hr) was 0.20% ID Th-227/g organ and the “Th-227 in salivary glands” value ([5]; 4 hr) was 0.36% ID Th-227/g organ. For the same compound, the “Th-227 in small intestine” value ([5]; 4 hr) was 0.21% ID Th-227/g organ, the Th-227 in Blood ([5]; 24 h) was 0.02% ID Th-227/g organ and the Th-227 in Liver ([5]; 24 h) was 078% ID Th-227/g organ. It also gave a Th-227 in Spleen ([5]; 24 h) of 1.96% ID Th-227/g organ, a Th-227 in Tumor ([5]; 24 h) of 2.23% ID Th-227/g organ and a Th-227 in bone ([5]; 24 h) of 0.46% ID Th-227/g organ. The Th-227 in brain ([5]; 24 h) was 0.00% ID Th-227/g organ, the Th-227 in kidney ([5]; 24 h) was 11.35% ID Th-227/g organ and the “Th-227 in large intestine” value ([5]; 24 h) was 0.21% ID Th-227/g organ. The Th-227 in lung ([5]; 24 h) was 0.25% ID Th-227/g organ, the Th-227 in muscle ([5]; 24 h) was 0.00% ID Th-227/g organ and the Th-227 in prostate ([5]; 24 h) was 0.02% ID Th-227/g organ. The “Th-227 in salivary glands” value ([5]; 24 h) was 0.18% ID Th-227/g organ, the “Th-227 in small intestine” value ([5]; 24 h) was 0.10% ID Th-227/g organ and the Th-227 in Blood ([5]; 96 h) was 0.00% ID Th-227/g organ. It also gave a Th-227 in Liver ([5]; 96 h) of 0.31% ID Th-227/g organ, a Th-227 in Spleen ([5]; 96 h) of 0.43% ID Th-227/g organ and a Th-227 in Tumor ([5]; 96 h) of 0.66% ID Th-227/g organ. It also gave a Th-227 in bone ([5]; 96 h) of 0.83% ID Th-227/g organ, a Th-227 in brain ([5]; 96 h) of 0.00% ID Th-227/g organ and a Th-227 in kidney ([5]; 96 h) of 2.18% ID Th-227/g organ. The “Th-227 in large intestine” value ([5]; 96 h) was 0.04% ID Th-227/g organ, the Th-227 in lung ([5]; 96 h) was 0.16% ID Th-227/g organ and the Th-227 in muscle ([5]; 96 h) was 0.00% ID Th-227/g organ. For the same compound, the Th-227 in prostate ([5]; 96 h) was 0.00% ID Th-227/g organ, the “Th-227 in salivary glands” value ([5]; 96 h) was 0.19% ID Th-227/g organ and the “Th-227 in small intestine” value ([5]; 96 h) was 0.04% ID Th-227/g organ.
